In the NIST ThermoML archive (doi:10.1016/j.jct.2019.105883):
Numbers after ± are expanded uncertainties.

Assay: xn = mol fraction of the nth substance listed
Conditions: 101.3 kPa, Liquid; for viscosity: Concentric cylinders viscometry; for mass density: Vibrating tube method

Compound: CCN.Cl [ethylammonium chloride] + CC(N)=O
- viscosity (313.2 K, x1 = 0.252): 32.6 ± 2.5 mPa·s
- viscosity (313.2 K, x1 = 0.337): 58 ± 2 mPa·s
- viscosity (313.2 K, x1 = 0.5): 71.5 ± 1.9 mPa·s
- mass density (313.2 K, x1 = 0.252): 1041 ± 4.1 kg/m3
- mass density (313.2 K, x1 = 0.337): 1042.8 ± 4.1 kg/m3
- mass density (313.2 K, x1 = 0.5): 1043.8 ± 4.1 kg/m3
- viscosity (323.2 K, x1 = 0.252): 27.8 ± 1.3 mPa·s
- viscosity (323.2 K, x1 = 0.337): 39.2 ± 1.2 mPa·s
- viscosity (323.2 K, x1 = 0.5): 48.4 ± 1.4 mPa·s
- mass density (323.2 K, x1 = 0.252): 1034.3 ± 4.1 kg/m3
- mass density (323.2 K, x1 = 0.337): 1036.4 ± 4.1 kg/m3
- mass density (323.2 K, x1 = 0.5): 1037.9 ± 4.1 kg/m3
- viscosity (333.2 K, x1 = 0.252): 21.9 ± 0.8 mPa·s
- viscosity (333.2 K, x1 = 0.337): 29.1 ± 0.9 mPa·s
- viscosity (333.2 K, x1 = 0.5): 35.8 ± 1 mPa·s
- mass density (333.2 K, x1 = 0.252): 1027.6 ± 4.1 kg/m3
- mass density (333.2 K, x1 = 0.337): 1030 ± 4.1 kg/m3
- mass density (333.2 K, x1 = 0.5): 1032 ± 4.1 kg/m3
- viscosity (343.2 K, x1 = 0.252): 18.4 ± 0.6 mPa·s
- viscosity (343.2 K, x1 = 0.337): 23.3 ± 0.6 mPa·s
- viscosity (343.2 K, x1 = 0.5): 28.2 ± 0.8 mPa·s
- mass density (343.2 K, x1 = 0.252): 1020.9 ± 4.1 kg/m3
- mass density (343.2 K, x1 = 0.337): 1023.7 ± 4.1 kg/m3
- mass density (343.2 K, x1 = 0.5): 1026.2 ± 4.1 kg/m3
- viscosity (353.2 K, x1 = 0.252): 15.2 ± 0.5 mPa·s
- viscosity (353.2 K, x1 = 0.337): 18.6 ± 0.6 mPa·s
- viscosity (353.2 K, x1 = 0.5): 23.5 ± 0.6 mPa·s
- mass density (353.2 K, x1 = 0.252): 1014.2 ± 4.1 kg/m3
- mass density (353.2 K, x1 = 0.337): 1017.3 ± 4.1 kg/m3
- mass density (353.2 K, x1 = 0.5): 1020.4 ± 4.1 kg/m3
